Laboratory results from PubChem BioAssay (NCI).
Where “and” joins values, the source holds several entries; their conditions need not be identical. Identical values can stand only once.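 Each compound was tested at five concentrations against cells in 96-well plates for 48 hours. GI50 = concentration required for 50% inhibition of growth. TGI is the concentration that stops growth completely.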

Experiments:
Assay in all cases: inhibition of tumour cell growth, NCI panel, 48 h
[1] = test system: ACHN renal
[2] = test system: 786-0 renal
[3] = test system: UO-31 renal
[4] = test system: A498 renal
[5] = test system: T-47D breast
[6] = test system: NCI-H226 lung
[7] = test system: SK-MEL-5 melanoma
[8] = test system: MCF7 breast

SMILES: CC(C)C(=O)c1c(C(F)(F)F)n([O-])c2cc(F)c(F)cc2[n+]1=O
- GI50 [1]: 155 nM
- TGI [1]: 0.324 µM
- GI50 [2]: 444 nM
- TGI [2]: 0.97 µM
- GI50 [3]: 568 nM
- TGI [3]: 1.75 µM
- GI50 [4]: 130 nM
- TGI [4]: 1.33 µM
- GI50 [5]: 1260 nM
- TGI [5]: 3.96 µM
- GI50 [6]: 1260 nM
- TGI [6]: 2.54 µM
- GI50 [7]: 197 nM
- TGI [7]: 0.609 µM

SMILES: O=C(c1ccccc1)c1c(C(F)(F)F)n([O-])c2cc(C(F)(F)F)ccc2[n+]1=O
- GI50 [1]: 1540 nM
- TGI [1]: 2.93 µM
- GI50 [2]: 655 nM
- TGI [2]: 1.4 µM
- GI50 [3]: 1320 nM
- TGI [3]: 2.67 µM
- GI50 [4]: 2220 nM
- TGI [4]: 5.22 µM
- GI50 [8]: 1420 nM
- TGI [8]: 3.29 µM
- GI50 [5]: 1460 nM
- TGI [5]: 3.38 µM
- GI50 [6]: 1830 nM
- TGI [6]: 4.01 µM
- GI50 [7]: 1690 nM
- TGI [7]: 3.24 µM

SMILES: Cc1c(Cl)cccc1NC(=O)/C=C/c1ccccc1
- TGI [1]: > 100 µM
- TGI [2]: > 100 µM
- TGI [4]: > 100 µM
- TGI [8]: > 100 µM
- TGI [5]: > 100 µM
- TGI [6]: > 100 µM
- TGI [7]: > 100 µM

SMILES: COc1ccc2c(c1OC)C(C(Cl)(Cl)Cl)N1CCc3cc4c(cc3C1=C2)OCO4 (configuration not stated)
- TGI [1]: 65.1 µM
- TGI [2]: 55.5 µM
- TGI [3]: > 100 µM
- TGI [4]: > 100 µM
- TGI [8]: > 100 µM
- TGI [5]: > 100 µM
- TGI [6]: 70.1 µM
- TGI [7]: 15.4 µM

SMILES: C[n+]1c2ccccc2nc2ccccc21
- GI50 [1]: 789 nM
- TGI [1]: 5.5 µM
- GI50 [2]: 2310 nM
- TGI [2]: 8.47 µM
- GI50 [3]: 2390 nM
- TGI [3]: 7.6 µM
- GI50 [4]: 1750 nM
- TGI [4]: 3.46 µM
- GI50 [8]: 353 nM
- TGI [8]: 1.59 µM
- GI50 [5]: 1070 nM
- TGI [5]: 2.72 µM
- GI50 [6]: 2630 nM
- TGI [6]: 9.47 µM
- GI50 [7]: 1030 nM
- TGI [7]: 2.52 µM

SMILES: Cc1nc2ccccn2c1NC(=O)NNC(=S)Nc1ccc(F)cc1
- GI50 [1]: > 100000 nM
- TGI [1]: > 100 µM
- GI50 [2]: > 100000 nM
- TGI [2]: > 100 µM
- GI50 [3]: > 100000 nM
- TGI [3]: > 100 µM
- GI50 [4]: > 100000 nM
- TGI [4]: > 100 µM
- GI50 [8]: > 100000 nM
- TGI [8]: > 100 µM
- GI50 [5]: > 100000 nM
- TGI [5]: > 100 µM
- GI50 [6]: > 100000 nM
- TGI [6]: > 100 µM
- GI50 [7]: > 100000 nM
- TGI [7]: > 100 µM

SMILES: Cn1c(-c2ccccc2)c(/C=C/C2=[N+](C)c3ccccc3C2(C)C)c2ccccc21
- GI50 [1]: 3050 nM
- TGI [1]: 11.7 µM
- GI50 [2]: 2180 nM
- TGI [2]: 9.02 µM
- GI50 [3]: 2230 nM
- TGI [3]: 7.3 µM
- GI50 [4]: 1710 nM
- TGI [4]: 10.9 µM
- GI50 [8]: 817 nM
- TGI [8]: 10.8 µM
- GI50 [5]: 340 nM
- TGI [5]: 9.07 µM
- GI50 [6]: 2350 nM
- TGI [6]: 12.2 µM
- GI50 [7]: 363 nM
- TGI [7]: 1.35 µM

SMILES: O=C(/C=C1\C(=O)N(Cc2ccccc2)c2ccccc21)c1ccc(OCCN2CCCCC2)cc1
- GI50 [1]: 1630 nM
- TGI [1]: 2.98 µM
- GI50 [2]: 1580 nM
- TGI [2]: 3.06 µM
- GI50 [3]: 1540 nM
- TGI [3]: 2.87 µM
- GI50 [4]: 14200 nM
- TGI [4]: 28.8 µM
- GI50 [5]: 1600 nM
- TGI [5]: 3.4 µM
- GI50 [6]: 16800 nM
- TGI [6]: 39.7 µM
- GI50 [7]: 12600 nM
- TGI [7]: 25.4 µM

SMILES: O=c1oc2cc(OC/C(=N/O)c3ccc(F)cc3)ccc2c2ccccc12
- GI50 [1]: 20400 nM
- TGI [1]: 41.6 µM
- GI50 [2]: 11700 nM
- TGI [2]: 25 µM
- GI50 [3]: 18700 nM
- TGI [3]: 35.2 µM
- GI50 [4]: 22000 nM
- TGI [4]: 37.7 µM
- GI50 [8]: 14900 nM
- TGI [8]: 38.4 µM
- GI50 [5]: 35400 nM
- TGI [5]: > 100 µM
- GI50 [6]: 22300 nM
- TGI [6]: 40.6 µM
- GI50 [7]: 20900 nM
- TGI [7]: 36.3 µM

SMILES: Clc1ccc2nc(CI)c(CI)nc2c1
- GI50 [1]: 1830 nM
- TGI [1]: 3.4 µM
- GI50 [2]: 4070 nM
- GI50 [3]: 1720 nM
- TGI [3]: 3.5 µM
- GI50 [4]: 29700 nM
- TGI [4]: > 60.7 µM
- GI50 [8]: 2870 nM
- TGI [8]: 9.53 µM
- GI50 [5]: 2600 nM
- TGI [5]: 8.28 µM
- GI50 [6]: 10400 nM
- TGI [6]: > 38 µM
- GI50 [7]: 4590 nM
- TGI [7]: 14.3 µM

SMILES: CCCCCCCC(=O)SCC/C=C/[C@@H]1CC(=O)NCc2nc(cs2)C2=N[C@@](C)(CS2)C(=O)N[C@@H](C(C)C)C(=O)N1
- GI50 [1]: 508 nM
- TGI [1]: 12 µM
- GI50 [2]: 139 nM
- TGI [2]: 19.7 µM
- GI50 [3]: 741 nM
- TGI [3]: 21.2 µM
- GI50 [4]: 24.4 nM
- TGI [4]: 0.333 µM
- GI50 [8]: 19.8 nM
- TGI [8]: > 100 µM
- GI50 [5]: < 12.4 nM
- TGI [5]: 0.0677 µM
- GI50 [6]: 906 nM
- TGI [6]: 22.2 µM
- GI50 [7]: 23.3 nM
- TGI [7]: 0.977 µM

SMILES: COc1ccc(/C(C#N)=C/c2cc(OC)c(OC)c(OC)c2)cc1
- GI50 [1]: 23500 nM
- TGI [1]: > 100 µM
- GI50 [2]: 41300 nM
- TGI [2]: > 100 µM
- GI50 [3]: 15300 nM
- TGI [3]: 68.8 µM
- GI50 [4]: 22700 nM
- TGI [4]: > 100 µM
- GI50 [8]: 11100 nM
- TGI [8]: > 100 µM
- GI50 [5]: 17000 nM
- TGI [5]: 67.6 µM
- GI50 [6]: 29100 nM
- TGI [6]: > 100 µM
- GI50 [7]: 10700 nM
- TGI [7]: 28.7 µM

SMILES: COC(=O)Nc1nc2ccc(C(=O)c3ccccc3)cc2[nH]1
- GI50 [1]: 2230 nM and 1330 nM
- TGI [1]: > 100 µM
- GI50 [2]: 593 nM and 720 nM
- TGI [2]: > 100 µM
- TGI [3]: > 100 µM
- GI50 [4]: 314 nM and 325 nM
- TGI [4]: 8.9 µM and 3.26 µM
- GI50 [8]: 318 nM and 204 nM
- TGI [8]: > 100 µM
- GI50 [6]: 1050 nM and 441 nM
- TGI [6]: 28.9 µM and > 100 µM
- GI50 [7]: 350 nM and 215 nM
- TGI [7]: 14 µM and 1.47 µM

SMILES: O=C1C=Cc2c1ccc1ccccc21
- GI50 [1]: 17100 nM
- TGI [1]: 58.7 µM
- GI50 [2]: 21300 nM
- TGI [2]: 65.2 µM
- GI50 [3]: 26700 nM
- TGI [3]: > 100 µM
- GI50 [8]: 18600 nM
- TGI [8]: > 100 µM
- GI50 [5]: 37900 nM
- TGI [5]: > 100 µM
- GI50 [6]: 16600 nM
- TGI [6]: > 100 µM
- GI50 [7]: 21100 nM
- TGI [7]: 71 µM

SMILES: C=C1C(=O)O[C@H]2[C@H]1CC/C(Cn1cc(-c3ccc(F)cc3)nn1)=C\CC[C@@]1(C)O[C@@H]21
- GI50 [1]: 182 nM
- TGI [1]: 0.445 µM
- GI50 [2]: 1060 nM
- TGI [2]: 2.36 µM
- GI50 [3]: 1220 nM
- TGI [3]: 2.51 µM
- GI50 [4]: 1820 nM
- TGI [4]: 3.91 µM
- GI50 [6]: 2480 nM
- TGI [6]: 6.74 µM
- GI50 [7]: 1740 nM
- TGI [7]: 3.12 µM

SMILES: CN(C)CCCC1(c2ccc(F)cc2)OCc2cc(-c3cc4ccccc4s3)ccc21 (configuration not stated)
- GI50 [1]: 1660 nM
- TGI [1]: 3.02 µM
- GI50 [2]: 1760 nM
- TGI [2]: 3.37 µM
- GI50 [3]: 1240 nM
- TGI [3]: 2.49 µM
- GI50 [4]: 1530 nM
- TGI [4]: 2.92 µM
- GI50 [8]: 1750 nM
- TGI [8]: 3.47 µM
- GI50 [5]: 2040 nM
- TGI [5]: 3.75 µM
- GI50 [7]: 1690 nM
- TGI [7]: 3.05 µM

SMILES: C=CCC1(C(=O)OC(C)(C)C)C(OC)=C(C(=O)OC(C)(C)C)C2C1C(C(=O)OC(C)(C)C)=C(OC)C2(CC=C)C(=O)OC(C)(C)C (configuration not stated)
- TGI [1]: > 100 µM
- TGI [2]: > 100 µM
- TGI [3]: > 100 µM
- TGI [6]: > 100 µM
